Source: patent publication US20050163707A1, “Cancer treatment” (priority 2002, published 2005)

Assays:
[1] = tested on: HT1376 bladder tumour xenografts; assay: Tumour volume tripling time of HT1376 xenografts in nude mice after 90Y-hHMFG1 radioimmunotherapy and/or chemotherapy; type: in vivo, mouse (human tumour xenograft); conditions: for T-C value: Cisplatin combined with 1.2 MBq radioimmunotherapy
Method: (§1) The human bladder tumour cell line, HT1376, and the human colon tumour cell line HT29 expressing polymorphic epithelial mucin (PEM) were cultured in RPMI 1640 tissue culture medium containing 100 U·ml^−1 penicillin and 100 μg·ml^−1 streptomycin, supplemented with 10% foetal calf serum in a humidified atmosphere of 5% carbon dioxide in air. HT1376 is a human bladder carcinoma cell line obtained from the European Collection of Animal Cell Cultures (ECACC no. 87032402). HT29 is human colon carcinoma cell line obtained from European Collection of Animal Cell Cultures (ECACC no. 91072201).
(§2) The fully humanised version of the anti-PEM antibody, HMFG1, was produced by Lonza, Slough, UK. This humanised HMFG1 (hHMFG1) was conjugated with the chelating agent […] by BioInvent, Sweden.
(§3) CITC-DTPA-conjugated hHMFG1 was radiolabelled with ^90Y in acetate buffer (pH 5.5) at room temperature for 30 minutes. Disodium EDTA was added to the reaction mixture such that the final EDTA concentration was 5 mM and left to stand at room temperature for approximately 10 min. The radiolabelled protein was then purified by size exclusion chromatography and the protein-containing fractions pooled.
(§4) Female MF1 athymic nude (nu/nu) mice were used throughout these studies. The mice were bred at the Biological Research Facility of St. George's Hospital Medical School and were housed in sterile filter cages and maintained on irradiated diet and sterile water. Tumours were established by subcutaneous injection of 5×10^6 cells in the right flank.
(§5) Humanised HMFG1 anti-PEM antibody (previously conjugated with the chelating agent CITC-DTPA) was radiolabelled with yttrium-90 (^90Y) to a specific activity of approximately 1-2 MBq per 10 μg. Mice received approximately 10 μg of protein by intravenous injection.
(§6) For combination therapy, the drug and radioimmunotherapy (RIT) were given by sequential injections into the two lateral tail veins. The drug was given either 24 h before or 24 h after the RIT. In the case of Cisplatin, this was also given at the same time as the RIT. Control mice were untreated.
(§7) Approximately three weeks after tumour inoculation, when the tumours were around 0.2 cm^3 in volume (7-8 mm in diameter), mice were divided into treatment groups of 7-8 mice each. […] Mice were injected with various doses of ^90Y-labelled hHMFG1 radioimmunotherapy (10-20 μg, 1.2-2.0 MBq) either alone or in combination with the test drug given either 24 h before or 24 h after radioimmunotherapy, or with chemotherapy or chemotherapy vehicle alone. One group of mice was left untreated as a control on some occasions when experimental animals were treated. Tumour diameters (d1, d2 and d3) were measured twice weekly in three orthogonal directions using a vernier calliper and the tumour volume (v) calculated according to the formula for an ellipsoid: [formula]
(§8) Relative tumour volume (the volume of each tumour divided by the tumour volume on the day of treatment) was calculated to minimise the effect of variation in treatment volume of the individual tumours. The end-point was defined as time for the relative tumour volume to reach 3.
(§9) The Wilcoxon rank sum test was used to compare the groups of mice receiving the various treatment protocols. A p-value <0.05 was considered to be significant.

[2] = tested on: mouse model of breast cancer; conditions: cited from earlier work
[3] = tested on: HT29 colon tumour xenografts; assay: Tumour volume tripling time of HT29 xenografts in nude mice after 90Y-hHMFG1 radioimmunotherapy and/or chemotherapy; type: in vivo, mouse (human tumour xenograft); conditions: for Median volume tripling time / T-C (treated minus control tripling time): 90Y-hHMFG1 1.4 MBq, combinations 24 h apart; for Most effective treatment schedule / Effect of drug combined with radioimmunotherapy (in words): Table 2; for Most effective treatment schedule: drug combined with 90Y-hHMFG1 radioimmunotherapy
Method: as §1, §2, §3, §4, §5, §6, §7, §8, §9

[4] = Table 2, HT1376 Cisplatin, Observer 1, control 21.9, 90Y-hHMFG1 1.2 MBq, Cisplatin 10 mg/kg, drug at -24 h, 0 h or +24 h relative to RIT
[5] = Table 2, HT1376 Cisplatin, Observer 1, control 21.9, 90Y-hHMFG1 1.4 MBq, Cisplatin 2 mg/kg, combination at 0 h
[6] = Table 2, HT1376 Cisplatin, Observer 1, control 21.9, 90Y-hHMFG1 1.4 MBq, Cisplatin 10 mg/kg, combination drug -24 h
[7] = Table 1, group with Control (25-26) 19.0, each drug 10 mg/kg i.v. alone
[8] = Table 1, group with Control (18-19) 17.9, Taxotere 10 mg/kg i.v., 90Y-hHMFG1 1.2 MBq i.v., combination of both
[9] = Table 2, HT1376 Taxotere, Observer 1, control 21.9, 90Y-hHMFG1 1.2 MBq, Taxotere 10 mg/kg, combinations 24 h apart
[10] = Table 2, HT29 cyclophosphamide, Observer 1, control 10.2, cyclo 200 mg/kg
[11] = Table 2, HT29 cyclophosphamide, Observer 2, control 10.7, cyclo 200 mg/kg
[12] = drug given after the 90Y-hHMFG1 radioimmunotherapy
[13] = Table 2, HT29 gemcitabine, Observer 1, control 8.8, gemcitabine 240 mg/kg
[14] = Table 2, HT29 gemcitabine, Observer 2, control 9.5, gemcitabine 240 mg/kg
[15] = Table 2, HT29 vincristine, Observer 1, control 10.2, vincristine 2 mg/kg

N.N.[Cl][Pt][Cl] [Cisplatin]
Median volume tripling time [1, 4]: 28.8 days
T-C (treated minus control tripling time) [1, 4]: 6.9 days
Median volume tripling time [1, 5]: 28.9 days
T-C (treated minus control tripling time) [1, 5]: 7.0 days
Median volume tripling time [1, 6]: 28.8 days
T-C (treated minus control tripling time) [1, 6]: 6.9 days
T-C, combined addition of the drugs administered individually ([1]; Table 2, 1.2 MBq 90Y-hHMFG1 alone plus Cisplatin 10 mg/kg alone): 7.9
T-C value ([1]; Table 2, first dosage regime (drug -24 h per Table 2)): 44
T-C value ([1]; Table 2, second dosage regime (0 h per Table 2)): 36.5
T-C value ([1]; Table 2, third dosage regime (drug +24 h per Table 2)): 15.5
Most effective treatment schedule ([1]; Table 2, drug combined with 90Y-hHMFG1 radioimmunotherapy): administer the drug 24 hours before the radioimuunotherapy
Effect of drug combined with radioimmunotherapy (in words) ([1]; Table 2, with 90Y-hHMFG1, no matter the order of administering): synergistic effect

COc1cccc2c1C(=O)c1c(O)c3c(c(O)c1C2=O)C[C@@](O)(C(=O)CO)C[C@@H]3O[C@H]1C[C@H](N)[C@H](O)[C@H](C)O1 [Dox]
T-C (treated minus control tripling time) [1, 7]: 33.9 days
Median volume tripling time ([1]; in vivo): 52.9 days

CC(=O)O[C@H]1C(=O)[C@@]2(C)[C@H]([C@H](OC(=O)c3ccccc3)[C@]3(O)C[C@H](OC(=O)[C@H](O)[C@@H](NC(=O)c4ccccc4)c4ccccc4)C(C)=C1C3(C)C)[C@]1(OC(C)=O)CO[C@@H]1C[C@@H]2O [Taxol ®, paclitaxel]
Median volume tripling time [1, 7]: 30.2 days
T-C (treated minus control tripling time) [1, 7]: 11.2 days
Optimum time for Taxol administration after 90Y-ChL6 [2]: 6 to 24 h

CC(=O)O[C@@]12CO[C@@H]1C[C@H](O)[C@@]1(C)C(=O)[C@H](O)C3=C(C)[C@@H](OC(=O)[C@H](O)[C@@H](NC(=O)OC(C)(C)C)c4ccccc4)C[C@@](O)([C@@H](OC(=O)c4ccccc4)[C@H]21)C3(C)C [Taxotere ®, Docetaxel]
Median volume tripling time [1, 8]: 43.8 days
T-C (treated minus control tripling time) [1, 8]: 25.9 days
Median volume tripling time [1, 7]: 41.2 days
T-C (treated minus control tripling time) [1, 7]: 22.2 days
Median volume tripling time [1, 9]: 43.5 days
T-C (treated minus control tripling time) [1, 9]: 21.6 days

O=P1(N(CCCl)CCCl)NCCCO1 (stereo not shown) [cyclo, Cyclophosphamide]
Median volume tripling time [3, 10]: 15.5 days
T-C (treated minus control tripling time) [3, 10]: 5.3 days
Median volume tripling time [3, 11]: 14.1 days
T-C (treated minus control tripling time) [3, 11]: 3.4 days
Most effective treatment schedule [3]: most effective when given after the radioimmunotherapy
Effect of drug combined with radioimmunotherapy (in words) [3, 12]: synergistic effect over the mere additive effect

Nc1ccn([C@@H]2O[C@H](CO)[C@@H](O)C2(F)F)c(=O)n1 [gemcitabine, Gemcitabine]
Median volume tripling time [3, 13]: 15.4 days
T-C (treated minus control tripling time) [3, 13]: 6.6 days
Median volume tripling time [3, 14]: 12.8 days
T-C (treated minus control tripling time) [3, 14]: 3.3 days
Effect of drug combined with radioimmunotherapy (in words) ([3]; drug and 90Y-hHMFG1 radioimmunotherapy given in combination): overall increase in T-C values

CC[C@]1(O)C[C@H]2CN(CCc3c([nH]c4ccccc34)[C@@](C(=O)OC)(c3cc4c(cc3OC)N(C=O)[C@H]3[C@@](O)(C(=O)OC)[C@H](OC(C)=O)[C@]5(CC)C=CCN6CC[C@]43[C@@H]65)C2)C1 [vincristine, Vincristine]
Median volume tripling time [3, 15]: 13.4 days
T-C (treated minus control tripling time) [3, 15]: 3.2 days
T-C (treated minus control tripling time) ([3]; Table 2, HT29 vincristine, Observer 2, control 10.7, vincristine 2 mg/kg): 4.0 days
Effect of drug combined with radioimmunotherapy (in words) ([3]; drug administered before the 90Y-hHMFG1 radioimmunotherapy): also effective when administered before the radioimmunotherapy although to a slightly lesser extent
Most effective treatment schedule [3]: most effective when given after the radioimmunotherapy
Effect of drug combined with radioimmunotherapy (in words) [3, 12]: synergistic effect over the mere additive effect
